Results on seven molecules are retold here after publication PMC5467316, “Antiviral Activity of Fridericia formosa (Bureau) L. G. Lohmann (Bignoniaceae) Extracts and Constituents” (Journal of Tropical Medicine, 2017).

For data set [1], the system named is hepatitis B surface antigen (HBsAg). On the set-up: method as in PMID 23576173. Particulars: cited from earlier work.
Data set [2] deals with hepatitis B antigen (HBeAg). Also on record: method as in PMID 23576173. Particulars: cited from earlier work.
A short description of data set [3]: Cytotoxicity assay (MTT), Vero cells. Type of data set: cell-based. Particulars: African green monkey.
A short description of data set [4]: Cytotoxicity assay (MTT), LLCMK2 cells. The class given is cell-based. Particulars: rhesus monkey.
In data set [5] the test system is human herpes virus 1 (HSV-1). In words: microbe, parasite or virus in culture. The class given is cell-based. Particulars: for EC50: Human alphaherpesvirus 1, 48 h; for antiviral activity against HSV-1 (in words): statement in text.
In data set [6] the test system is vaccinia virus Western Reserve (VACV-WR). Kind of data set: microbe, parasite or virus in culture. The class given is cell-based. To be noted: for EC50: Vaccinia virus Western Reserve, 48 h; for antiviral activity against VACV-WR (in words): statement in text.
Data set [7] has as its system murine encephalomyocarditis virus (EMCV). The class given is cell-based. To be noted: statement in text.
Data set [8] has as its system dengue virus type 2 (DENV-2). Kind of data set: microbe, parasite or virus in culture. The class given is cell-based. Particulars: for antiviral activity against DENV-2 (in words): statement in text; for EC50: Dengue virus, DENV2, 72 h.
A further data set concerns HSV-1. On the set-up: method as in PMID 16350858. Particulars: previously reported; read-out: EC50 against HSV-1; cited from earlier work.
On the set-up of data set [9]: method as in PMID 14977449. To be noted: clinical tests; cited from earlier work.
The test system of another data set is HIV-1 replication. Also on record: method as in PMID 24066838, PMID 21610656. To be noted: dose dependent manner; cited from earlier work.
The subject of another data set is Enterovirus 71. Also on record: method as in PMID 24679044. To be noted: in vitro; read-out: EC50 against Enterovirus 71; cited from earlier work.
In the next data set the test system is Vero cells. Also on record: method as in PMID 24679044. To be noted: cited from earlier work.
Where [10] appears, read: read-out: HSV-1 EC50 (value in parentheses).
The mark [11] stands for this setting: read-out: VACV-WR EC50 (value in parentheses), viral titer TCID50/mL 1.0 × 10^6 in 48 h, MTT, concentration in µM.
Where [12] appears, read: read-out: VACV-WR EC50, viral titer TCID50/mL 1.0 × 10^6 in 48 h, MTT.

Like-named read-outs stand apart in the source and are kept apart here.

Take `COc1cc(O)c2c(=O)c3c(O)ccc(O)c3oc2c1` [1,5,8-trihydroxy-3-methoxyxanthone]: the EC50 in data set [1] was greater than 980 µM; in data set [2], 350 µM.

For `O=c1c2cc(O)ccc2oc2cc(O)c([C@@H]3O[C@H](CO)[C@@H](O)[C@H](O)[C@H]3O)c(O)c12` [2-C-β-D-glucopyranosyl-1,3,7-trihydroxyxanthone], the figures for the EC50 in [1] and in [2] were 210 µM and 40 µM, respectively.

`Nc1nc2c(ncn2COCCO)c(=O)[nH]1` [Acyclovir, reference compound]: the CC50 in [3] (MTT, exposure 48 and 72 h, read-out: Vero CC50) is greater than 1000 µg/mL; in data set [4] (MTT, exposure 48 and 72 h, read-out: LLCMK2 CC50), greater than 1000 µg/mL.

Take `O=c1cc(-c2ccccc2)oc2cc(O)cc(O)c12` [Chrysin (4), 5,7-Dihydroxy-2-phenyl-4H-1-benzopyran-4-one]: the CC50 in data set [3] and in data set [4] was greater than 500 µg/mL in each case. Also, the EC50 in data set [5] (read-out: HSV-1 EC50) was greater than 100 µg/mL; in data set [5] (setting [10]), 576 µM; in data set [6] (setting [11]), 486 µM; in data set [6] (setting [12]), greater than 100 µg/mL; in the data set with HSV-1 it was 2.5 µM. Moreover, the “antiviral activity against HSV-1 (in words)” value in [5] is “low activity”. For the same molecule, the “antiviral activity against VACV-WR (in words)” value in data set [6] is reported as “low activity”. In [6] (viral titer TCID50/mL 1.0 × 10^6 in 48 h, MTT), the “VACV-WR EC50” value was 123.5 ± 10.5 µg/mL. Further, the “antiviral activity against EMCV (in words)” value in data set [7] is “did not inhibit the replication cycle”. The “antiviral activity against DENV-2 (in words)” value in data set [8] was “did not inhibit the replication cycle”. In addition, the “effect on testosterone levels in men (in words)” value in data set [9] is “no effect”.

Turning to `O=c1c2cc(O)c(O)cc2oc2cc(O)c([C@@H]3O[C@H](CO)[C@@H](O)[C@H](O)[C@H]3O)c(O)c12` [Mangiferin (1), 2-β-D-Glucopyranosyl-1,3,6,7-tetrahydroxy-9H-xanthen-9-one], the CC50 in [3] and in data set [4] was greater than 500 µg/mL each time. The EC50 in data set [5] (read-out: HSV-1 EC50) was 268 µg/mL; in [5] (setting [10]), 635 µM; in [6] (setting [11]), 432 µM; in data set [6] (setting [12]), 183 ± 14.3 µg/mL; in data set [8] (read-out: DENV-2 EC50), 266 µg/mL; in [8] (read-out: DENV-2 EC50 (value in parentheses)) it was 629 µM. In addition, the “antiviral activity against HSV-1 (in words)” value in data set [5] was “low antiviral effect”; in data set [5] (listed as mangiferin), “practically inactive”. For the same molecule, the “antiviral activity against VACV-WR (in words)” value in [6] is “low antiviral effect”; in data set [6] (listed as mangiferin), “practically inactive”. Besides, the “antiviral activity against EMCV (in words)” value is “low antiviral effect” in data set [7] and “practically inactive” in data set [7] (listed as mangiferin). Moreover, the “antiviral activity against DENV-2 (in words)” value is “low antiviral effect” in data set [8] and “practically inactive” in data set [8] (listed as mangiferin). In addition, in the data set with HIV-1 replication, the “inhibitory activity on HIV-1 replication (in words)” value is listed as “good inhibitory activity”.

Take `O=c1c2c(O)cc(O)cc2oc2c(O)ccc(O)c12` [norbellidifolin]: the EC50 in data set [1] was 770 µM; in data set [2] it was less than 620 µM.

Regarding euxanthone, the EC50 in the data set with Enterovirus 71 was 12.2 µM. In addition, the CC50 in the data set on Vero cells is 36.6 µM.
